These compounds were tested on LNCaP cells (assay: LNCaP cell viability assay (MTS)). Conditions: Homo sapiens, LNCaP cell line, 48 hours.
Type: cell-based
Summary of the method: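 GI50 derived by nonlinear four-parameter curve fitting (bottom fixed at zero) of MTS viability data. Prostate LNCaP cells seeded at 5000/well were given compound doses from 1 to 80 µM one day after plating and assayed after 48 h of exposure.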

| SMILES | GI50 |
| --- | --- |
| O=S(=O)(NC(CN1CCCCC1)c1ccc(Cl)cc1)c1ccc(OC(F)(F)F)cc1 (stereo not shown) [Compound 183, N-(1-(4-chlorophenyl)-2-(piperidin-1-yl)ethyl)-4-(trifluoromethoxy)benzenesulfonamide] | 33.8 µM |
| CN(C)CC(NS(=O)(=O)c1ccc(OC(F)(F)F)cc1)c1ccc(C(F)(F)F)cc1 (stereo not shown) [Compound 219, N-(2-(dimethylamino)-1-(4-(trifluoromethyl)phenyl)ethyl)-4-(trifluoromethoxy)benzenesulfonamide] | 43.6 µM |

Same assay, conditions: Homo sapiens, LNCaP, 48 h, LNCaP cell line

| SMILES | GI50 |
| --- | --- |
| O=S(=O)(NC(c1cc(Cl)cc(Cl)c1)C1CCCCC1)c1ccc(OC(F)(F)F)cc1 (stereo not shown) [Compound 69, N-(cyclohexyl(3,5-dichlorophenyl)methyl)-4-(trifluoromethoxy)benzenesulfonamide] | 9 µM |
| O=S(=O)(NC(CN1CC2CC1CN2)c1ccc(Cl)c(Cl)c1)c1ccc(OC(F)(F)F)cc1 (single isomer, unassigned) [Compound 261a, N-(2-(2,5-diazabicyclo[2.2.1]heptan-2-yl)-1-(3,4-dichlorophenyl)ethyl)-4-(trifluoromethoxy)benzenesulfonamide] | 10.5 µM |
| CC(CC1CCCCN1C)NS(=O)(=O)c1ccc(OC(F)(F)F)cc1 (stereo not shown) [Compound 93, N-(1-(1-methylpiperidin-2-yl)propan-2-yl)-4-(trifluoromethoxy)benzenesulfonamide] | 34 µM |
| CCc1ccc(C(CNS(=O)(=O)c2ccc(OC(F)(F)F)cc2)N2CCCC2)cc1 (stereo not shown) [Compound 28, N-(2-(4-ethylphenyl)-2-(pyrrolidine-1-yl)ethyl)-4-(trifluoromethoxy)benzenesulfonamide] | 55.8 µM |
| Cc1ccccc1S(=O)(=O)NC(CN(C)C)c1ccc(Cl)c(Cl)c1 (stereo not shown) [Compound 131, N-(1-(3,4-dichlorophenyl)-2-(dimethylamino)ethyl)-2-methylbenzenesulfonamide] | 49 µM |
| CN(C)CC(NS(=O)(=O)CCc1ccccc1)c1ccc(Cl)c(Cl)c1 (stereo not shown) [Compound 136, N-(1-(3,4-dichlorophenyl)-2-(dimethylamino)ethyl)-2-phenylethane-1-sulfonamide] | 24.3 µM |
| CC(NS(=O)(=O)c1ccc(OC(F)(F)F)cc1)C(NC(=O)OC(C)(C)C)c1ccccc1 (stereo not shown) [Compound 105, Tert-butyl (1-phenyl-2-((4-(trifluoromethoxy)phenyl)sulfonamido)propyl)carbamate] | 37 µM |
| CN1CCN(CC(NS(=O)(=O)c2ccc(Oc3ccc(F)cc3)cc2)c2ccc(Cl)c(Cl)c2)CC1 (stereo not shown) [Compound 269, N-(1-(3,4-dichlorophenyl)-2-(4-methylpiperazin-1-yl)ethyl)-4-(4-fluorophenoxy)benzenesulfonamide] | 15 µM |
| CCOC(=O)C(Cc1cc(Cl)sc1Cl)NS(=O)(=O)c1ccc(OC(F)(F)F)cc1 (stereo not shown) [Compound 42, Ethyl 3-(2,5-dichlorothiophen-3-yl)-2-((4-(trifluoromethoxy)phenyl)sulfonamido)propanoate] | 57.8 µM |
| CC(C)Oc1ccc(S(=O)(=O)NC(CN(C)C)c2ccc(Cl)c(Cl)c2)cc1 (stereo not shown) [Compound 208, N-(1-(3,4-dichlorophenyl)-2-(dimethylamino)ethyl)-4-isopropoxybenzenesulfonamide] | 25.4 µM |
| O=S(=O)(N[C@H](Cc1cc(F)c(F)cc1F)CC(F)(F)F)c1ccc(OC(F)(F)F)cc1 [Compound 85, (R)—N-(4,4,4-trifluoro-1-(2,4,5-trifluorophenyl)butan-2-yl)-4-(trifluoromethoxy)benzenesulfonamide] | 26 µM |
| Cc1ccc(S(=O)(=O)NC(CN(C)C)c2ccc(Cl)c(Cl)c2)cc1 (stereo not shown) [Compound 133, N-(1-(3,4-dichlorophenyl)-2-(dimethylamino)ethyl)-4-methylbenzenesulfonamide] | 51.8 µM |
| CN(C)CC(NS(=O)(=O)c1ccc(OC2CCCCC2)cc1)c1ccc(Cl)c(Cl)c1 (stereo not shown) [Compound 209] | 11.1 µM |

Same assay, conditions: LNCaP cell line, 48 hours

| SMILES | GI50 |
| --- | --- |
| CN(C)CC(NS(=O)(=O)c1ccc(OC(F)(F)F)cc1)c1ccc(Cl)c(Cl)c1 (single isomer, unassigned) [Compound 149, N-(1-(3,4-dichlorophenyl)-2-(dimethylamino)ethyl)-4-(trifluoromethoxy)benzenesulfonamide] | 23.9 µM |

— patent publication US20240174603A1 (Rappta Therapeutics Oy, priority 2021, published 2024)
